System: K98450-129-R-PDC complex spheroid growth, percent test/control
Test: Anticancer human tumor K98450-129-R-PDC patient-derived colon adenocarcinoma cell line growth inhibition [RAS]
Conditions: for IC50: curve of first compound; for viability, T/C: stronger effect = lower value
Summary of the method: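 Agents were tested in combination matrices in half-log decrements from a top concentration at or near clinical Cmax (10 microM if undetermined). Targets were multi-cell spheroids of tumour lines plus HUVEC and MSC stromal cells.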

[1] = second compound 0.00316 µM, first compound 0.0316 µM
[2] = second compound 0.00316 µM, first compound 0.1 µM
[3] = second compound 0.00316 µM, first compound 0.316 µM
[4] = second compound 0.00316 µM, first compound 1 µM
[5] = second compound 0.01 µM, first compound 0.0316 µM
[6] = second compound 0.01 µM, first compound 0.1 µM
[7] = second compound 0.01 µM, first compound 0.316 µM
[8] = second compound 0.01 µM, first compound 1 µM
[9] = second compound 0.0316 µM, first compound 0.0316 µM
[10] = second compound 0.0316 µM, first compound 0.1 µM
[11] = second compound 0.0316 µM, first compound 0.316 µM
[12] = second compound 0.0316 µM, first compound 1 µM
[13] = second compound 0.1 µM, first compound 0.0316 µM
[14] = second compound 0.1 µM, first compound 0.1 µM
[15] = second compound 0.1 µM, first compound 0.316 µM
[16] = second compound 0.1 µM, first compound 1 µM
[17] = second compound 0.316 µM, first compound 0.0316 µM
[18] = second compound 0.316 µM, first compound 0.1 µM
[19] = second compound 0.316 µM, first compound 0.316 µM
[20] = second compound 0.316 µM, first compound 1 µM
[21] = second compound 1 µM, first compound 0.0316 µM
[22] = second compound 1 µM, first compound 0.1 µM
[23] = second compound 1 µM, first compound 0.316 µM
[24] = second compound 1 µM, first compound 1 µM
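Also: spheroids exposed to agents for seven days before the viability readout.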
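For viability, T/C in this document: luminescence used as a proxy for viable cell amount.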

In the case of `C=CC(=O)Nc1cc(Nc2nccc(-c3cn(C)c4ccccc34)n2)c(OC)cc1N(C)CCN(C)C` + C=CC(=O)N1CCN(c2nc(OCC3CCCN3C)nc3c(F)c(-c4nc(N)cc(C)c4C(F)(F)F)c(Cl)cc23)C(C)C1, the IC50 (second compound 0.00316 µM) is reported as 194 nM, the IC50 (second compound 0.01 µM) is reported as 151 nM and the IC50 (second compound 0.0316 µM) is reported as 54.3 nM. It also gave an IC50 (second compound 0.1 µM) of 10.5 nM, an IC50 (second compound 0.316 µM) of less than 3.16 nM and an IC50 (second compound 1 µM) of less than 3.16 nM. The viability, T/C (second compound 0.00316 µM, first compound 0.00316 µM) was 93.5%, the viability, T/C (second compound 0.00316 µM, first compound 0.01 µM) was 85.9% and the viability, T/C [1] was 91%. The viability, T/C [2] was 83.5%, the viability, T/C [3] was 25.5% and the viability, T/C [4] was 9.6%. It also gave a viability, T/C (second compound 0.01 µM, first compound 0.00316 µM) of 94.4%, a viability, T/C (second compound 0.01 µM, first compound 0.01 µM) of 78% and a viability, T/C [5] of 85.2%. For the same compound, the viability, T/C [6] was 71.3%, the viability, T/C [7] was 11.4% and the viability, T/C [8] was 8.81%. It also gave a viability, T/C (second compound 0.0316 µM, first compound 0.00316 µM) of 70.3%, a viability, T/C (second compound 0.0316 µM, first compound 0.01 µM) of 70.4% and a viability, T/C [9] of 63.6%. The viability, T/C [10] was 34.3%, the viability, T/C [11] was 9.39% and the viability, T/C [12] was 8.93%. The viability, T/C (second compound 0.1 µM, first compound 0.00316 µM) was 56.3%, the viability, T/C (second compound 0.1 µM, first compound 0.01 µM) was 47.9% and the viability, T/C [13] was 38.7%. The viability, T/C [14] was 17.6%, the viability, T/C [15] was 8.42% and the viability, T/C [16] was 8.07%. It also gave a viability, T/C (second compound 0.316 µM, first compound 0.00316 µM) of 39%, a viability, T/C (second compound 0.316 µM, first compound 0.01 µM) of 34.4% and a viability, T/C [17] of 29.3%. For the same compound, the viability, T/C [18] was 13.7%, the viability, T/C [19] was 10.3% and the viability, T/C [20] was 9.33%. For the same compound, the viability, T/C (second compound 1 µM, first compound 0.00316 µM) was 30.4%, the viability, T/C (second compound 1 µM, first compound 0.01 µM) was 27.1% and the viability, T/C [21] was 22.6%. It also gave a viability, T/C [22] of 13.8%, a viability, T/C [23] of 10.9% and a viability, T/C [24] of 9.84%.

`CC(C)NCC(C(=O)N1CCN(c2ncnc3c2C(C)CC3O)CC1)c1ccc(Cl)cc1` (centres undefined) + C=CC(=O)N1CCN(c2nc(OCC3CCCN3C)nc3c(F)c(-c4nc(N)cc(C)c4C(F)(F)F)c(Cl)cc23)C(C)C1 gave an IC50 (second compound 0.00316 µM) greater than 10000 nM, an IC50 (second compound 0.01 µM) greater than 10000 nM and an IC50 (second compound 0.0316 µM) greater than 10000 nM. The IC50 (second compound 0.1 µM) was greater than 10000 nM, the IC50 (second compound 0.316 µM) was less than 31.6 nM and the IC50 (second compound 1 µM) was less than 31.6 nM. It also gave a viability, T/C [1] of 94.4%, a viability, T/C [2] of 97.7% and a viability, T/C [3] of 94.8%. The viability, T/C [4] was 93.2%, the viability, T/C (second compound 0.00316 µM, first compound 3.16 µM) was 91.4% and the viability, T/C (second compound 0.00316 µM, first compound 10 µM) was 91.2%. The viability, T/C [5] was 89.3%, the viability, T/C [6] was 81.3% and the viability, T/C [7] was 85.1%. The viability, T/C [8] was 84.6%, the viability, T/C (second compound 0.01 µM, first compound 3.16 µM) was 83.8% and the viability, T/C (second compound 0.01 µM, first compound 10 µM) was 85.3%. For the same compound, the viability, T/C [9] was 70%, the viability, T/C [10] was 63.7% and the viability, T/C [11] was 65.9%. For the same compound, the viability, T/C [12] was 67.3%, the viability, T/C (second compound 0.0316 µM, first compound 3.16 µM) was 75% and the viability, T/C (second compound 0.0316 µM, first compound 10 µM) was 75.5%. It also gave a viability, T/C [13] of 53.1%, a viability, T/C [14] of 52.5% and a viability, T/C [15] of 53.7%. For the same compound, the viability, T/C [16] was 57%, the viability, T/C (second compound 0.1 µM, first compound 3.16 µM) was 54.8% and the viability, T/C (second compound 0.1 µM, first compound 10 µM) was 49.6%. The viability, T/C [17] was 38.3%, the viability, T/C [18] was 42.1% and the viability, T/C [19] was 41%. For the same compound, the viability, T/C [20] was 43.7%, the viability, T/C (second compound 0.316 µM, first compound 3.16 µM) was 42.6% and the viability, T/C (second compound 0.316 µM, first compound 10 µM) was 36.4%. For the same compound, the viability, T/C [21] was 31.4%, the viability, T/C [22] was 32.7% and the viability, T/C [23] was 35.9%. For the same compound, the viability, T/C [24] was 32.1%, the viability, T/C (second compound 1 µM, first compound 3.16 µM) was 32.7% and the viability, T/C (second compound 1 µM, first compound 10 µM) was 29%.
